Data: patent US20210171576A1, “METHODS FOR TREATING CANCER WITH ACYLDEPSIPEPTIDE ANALOGS” (priority 2018, published 2021)
Where a SMILES comes first, the peptide text is derived from it. Bridges are numbered along the chain shown (N, C = ends). [ ]: non-standard residue; d: D form. The star is where a group is joined. Phe(3,5-F2) = N[C@@H](Cc1cc(F)cc(F)c1)C(=O)O; Heptenoyl(2E) = CCCC/C=C/C(=O)*; aThr = C[C@H](O)[C@H](N)C(=O)O; Pip = O=C(O)[C@@H]1CCCCN1

Key:
[1] = target: T1, human mitochondrial CIpP (HsCIpP) (Homo sapiens, UniProt Q16740); assay: Screen of ADEP analogs against HsCIpP: relative degradation (RD) index, casein-FITC degradation relative to E. coli CIpAP; type: biochemical; design: key: casein-FITC degradation by HsClpP relative to EcClpAP
T1 construct: made in house; host or cells: E. coli SG1146 (BL21(DE3) ΔclpP::cat)
T1 sequence (Q16740 57-277): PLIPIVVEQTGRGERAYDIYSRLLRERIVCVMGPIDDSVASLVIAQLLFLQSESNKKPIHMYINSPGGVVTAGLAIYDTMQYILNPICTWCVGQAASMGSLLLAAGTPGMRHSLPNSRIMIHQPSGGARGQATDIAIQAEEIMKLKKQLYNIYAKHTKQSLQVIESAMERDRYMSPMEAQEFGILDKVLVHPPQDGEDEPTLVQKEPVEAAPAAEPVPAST

[2] = test system: HEK293 T-REx WT cells; assay: Western blots for HsCIpX and apoptotic protein markers; type: cell-based, human
Protocol: Cells were harvested by the standard trypsinization protocol and counted with a hemocytometer. Cell lysates were prepared by first re-suspending the cells in PBS at 5×10^6 cells/mL, followed by sonication. Proteins in the lysates were analyzed by Western blotting using Immobilin-P PVDF membranes (EMD Millipore). Blots were imaged and analyzed with the ChemiDoc XRS+ System (BioRad). Quantification of HsCIpP expression was performed by densitometry using the Quantity One 1D Analysis Software (BioRad). HsCIpP expression levels were corrected for sample loading errors and normalized to the expression level in HEK293 T-REx WT. Primary antibodies for HsCIpP, HsCIpX and GAPDH were purchased from Abcam. Primary antibodies for Caspase-8, Caspase-9 and PUMA were purchased from Cell Signaling Technologies. The primary antibody for Caspase-3 was purchased from R&D Systems. Primary antibodies for Mcl-1 and Bcl-2 were purchased from EMD Millipore. The primary antibody for the FLAG-tag was purchased from Sigma-Aldrich. HRP-conjugated goat anti-rabbit IgG (for HsCIpX, Caspase-8, Caspase-9 and PUMA) and HRP-conjugated goat anti-mouse IgG (for HsCIpP, Mcl-1, Bcl-2, GAPDH and FLAG-tag) were purchased from BioRad. HRP-conjugated rabbit anti-goat IgG (for Caspase-3) was purchased from Sigma-Aldrich.

[3] = test system: HeLa T-REx cells; assay: Cytotoxicity, SRB staining
Protocol: (§1) To assess the cytotoxicity of ADEP analogs, cells were seeded at 1×10^3 or 2×10^3 cells in 50 μL per well on sterile 96-well flat-bottom tissue culture plates (VWR). Growth media without any cells was included as a control. Cells were grown for at least 24 hours to allow proper adherence to the growth surface. Afterwards, ADEP analogs were serially diluted and introduced to the tissue cultures via fresh growth media at 50 μL per well. Inclusion of activators/DMSO brought the final DMSO concentration of the growth media up to a maximum of 0.5% (v:v). […] A total of four independent replicates were prepared for each cell line and for each growth condition used. Cells were grown in the presence of ADEP/DMSO for 72 hours.
(§2) To assess cell survival, live adherent cells were fixed with 10% (w:v) trichloroacetic acid (TCA) at 4° C. for 1-2 hours. The tissue culture plates were then rinsed with water to remove dead cells and cell debris and air-dried overnight. […] Absorbance at λ=510 nm (A510) was then measured using the EnSpire 2300 Multilabel Reader. […]
(§3) To determine the IC50 for the ADEP analogs, relative cell viability (RCV) values were calculated by normalizing the A510 readings in ADEP-containing sample to the DMSO-only control. […]

[4] = test system: undifferentiated SH-SY5Y cells; assay: Cytotoxicity, SRB staining
Protocol: as §1, §2, §3

[5] = test system: HEK293 T-REx CLPP^−/− cells; assay: Cytotoxicity, SRB staining, 72 hours; conditions: CLPP^−/− cells lacking endogenous HsCIpP
Protocol: To assess the cytotoxicity of ADEP analogs, cells were seeded at 1×10^3 or 2×10^3 cells in 50 μL per well on sterile 96-well flat-bottom tissue culture plates (VWR). Growth media without any cells was included as a control. Cells were grown for at least 24 hours to allow proper adherence to the growth surface. Afterwards, ADEP analogs were serially diluted and introduced to the tissue cultures via fresh growth media at 50 μL per well. Inclusion of activators/DMSO brought the final DMSO concentration of the growth media up to a maximum of 0.5% (v:v). […] A total of four independent replicates were prepared for each cell line and for each growth condition used. […]
To assess cell survival, live adherent cells were fixed with 10% (w:v) trichloroacetic acid (TCA) at 4° C. for 1-2 hours. […] Absorbance at λ=510 nm (A510) was then measured using the EnSpire 2300 Multilabel Reader. […]
as §3
Assessment of cytotoxicity of ADEP-14 on human breast cancer cell lines (MDA-MB-231 WT, MDA-MB-231 CLPP-KD, MDA-MB-468, and MCF-7) and HEK cells (HEK293 T-Rex and HEK293 T-REx CLPP) were determined using the methods as described above in Example 1. […] Sulforhodamine B (SRB) staining method was used to quantify cell survival.

[6] = test system: HEK293 T-REx+CLPP-FLAG cells; assay: Cytotoxicity, SRB staining, with or without Dox
Protocol: (§4) To assess the cytotoxicity of ADEP analogs, cells were seeded at 1×10^3 or 2×10^3 cells in 50 μL per well on sterile 96-well flat-bottom tissue culture plates (VWR). Growth media without any cells was included as a control. Cells were grown for at least 24 hours to allow proper adherence to the growth surface. Afterwards, ADEP analogs were serially diluted and introduced to the tissue cultures via fresh growth media at 50 μL per well. Inclusion of activators/DMSO brought the final DMSO concentration of the growth media up to a maximum of 0.5% (v:v). For experiments that involve overexpression of FLAG-tagged HsCIpP (WT or S153A mutant), Dox (Sigma-Aldrich) was also applied at 0.4 μg/mL (final concentration) as needed. A total of four independent replicates were prepared for each cell line and for each growth condition used. Cells were grown in the presence of ADEP/DMSO for 72 hours.
as §2, §3

[7] = test system: HEK293 T-REx+CLPPS153A-FLAG cells; assay: Cytotoxicity, SRB staining, with or without Dox
Protocol: as §4, §2, §3

CCCC/C=C/C(=O)N[C@@H](Cc1cc(F)cc(F)c1)C(=O)N[C@@H]1C(=O)N2CCC[C@H]2C(=O)N2CCCC[C@H]2C(=O)N[C@@H](C)C(=O)N2CCC[C@H]2C(=O)O[C@H]1C [ADEP-41] ({Heptenoyl(2E)}-[Phe(3,5-F2)][aThr]P[Pip]AP; ester 2-C)
Hs RD1 ([1]; RD value at 1 μM of the ADEP analog): 0.79 | Hs RD5 ([1]; RD value at 5 μM of the ADEP analog): 0.93 | Hs RD25 ([1]; RD value at 25 μM of the ADEP analog, measure of ability to activate HsCIpP): 0.96 | activation-specific cleavage of Caspase-8 ([2]; 10 μM, 72 hours): no activation-specific cleavage was observed | activation-specific cleavage of Caspase-9 and Caspase-3 ([2]; 10 μM, 72 hours): activation-specific cleavage was detected | level of anti-apoptotic Bcl-2 protein ([2]; 10 μM, 72 hours): no change | HsCIpX level ([2]; 20 μM 24 hours or 10 μM 72 hours): no longer detected | activation-specific cleavage of Caspase-8, Caspase-9 or Caspase-3 ([2]; 20 μM, 24 hours): no activation-specific cleavage was observed | anti-apoptotic Mcl-1 protein ([2]; 20 μM, 24 hours): degraded | pro-apoptotic PUMA protein ([2]; 20 μM, 24 hours): significantly upregulated | IC50 compared across cell lines [3]: similar | IC50 compared across cell lines [4]: slightly higher value | sensitivity to ADEP-induced cytotoxicity [5]: resistant | change in IC50 relative to WT ([6]; 0.4 μg/mL Dox, HsCIpP overexpression): significant decrease in IC50 | sensitivity relative to WT ([6]; without Dox): equally sensitive | change in IC50 ([7]; 0.4 μg/mL Dox, inactive HsCIpP(S153A) overexpression): no change in IC50 | sensitivity relative to WT ([7]; without Dox): equally sensitive
